21 compounds from US10981911B2, “Imidazopyrrolopyridine as inhibitors of the JAK family of kinases” (Janssen Pharmaceutica NV, priority 2016, dated 2021) can be followed below.

SMILES strings stand for the structures.

Holding throughout (assay type): biochemical
Assay [1] concerns the target JAK2-JH1JH2 (Homo sapiens (Human), UniProt O60674). Put plainly: Enzymatic inhibition assay (RapidFire HTMS), JAK2. Particulars: 30 μM ATP, 40 μM substrate. In short, it runs like this:
(§1)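 Quenched with 0.5% TFA plus internal-standard peptide; phosphorylated product quantified by RapidFire C4 SPE–ESI-MS, 11-point 1:3 or 1:4 dilutions in duplicate.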

The target of assay [2] is Tyk2-JH1JH2 (Homo sapiens (Human), UniProt P29597, C1142A/C936A). Put plainly: Enzymatic inhibition assay (RapidFire HTMS), Tyk2. As to conditions: 50 μM ATP, 200 μM substrate. A digest of the protocol:
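Compounds were tested in duplicate as 11-point 1:3 or 1:4 DMSO dilutions (≤0.25% DMSO final) in 20 μL reactions at 25 °C for 90 min, with Tyk2 pre-incubated 30 min with 2 mM ATP. Reactions were quenched with TFA plus internal standard peptide, and phosphorylated product was quantified by RapidFire C4 SPE–ESI MS.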

In assay [3] the target is JAK1-JH1JH2 (Homo sapiens (Human), UniProt P23458). Put plainly: Enzymatic inhibition assay (RapidFire HTMS), JAK1. Particulars: 12.5 μM ATP, 200 μM substrate; read-out: JAK1-JH2JH1 IC50. A digest of the protocol: as §1
JAK1-JH1JH2, sequence (P23458 574-1154): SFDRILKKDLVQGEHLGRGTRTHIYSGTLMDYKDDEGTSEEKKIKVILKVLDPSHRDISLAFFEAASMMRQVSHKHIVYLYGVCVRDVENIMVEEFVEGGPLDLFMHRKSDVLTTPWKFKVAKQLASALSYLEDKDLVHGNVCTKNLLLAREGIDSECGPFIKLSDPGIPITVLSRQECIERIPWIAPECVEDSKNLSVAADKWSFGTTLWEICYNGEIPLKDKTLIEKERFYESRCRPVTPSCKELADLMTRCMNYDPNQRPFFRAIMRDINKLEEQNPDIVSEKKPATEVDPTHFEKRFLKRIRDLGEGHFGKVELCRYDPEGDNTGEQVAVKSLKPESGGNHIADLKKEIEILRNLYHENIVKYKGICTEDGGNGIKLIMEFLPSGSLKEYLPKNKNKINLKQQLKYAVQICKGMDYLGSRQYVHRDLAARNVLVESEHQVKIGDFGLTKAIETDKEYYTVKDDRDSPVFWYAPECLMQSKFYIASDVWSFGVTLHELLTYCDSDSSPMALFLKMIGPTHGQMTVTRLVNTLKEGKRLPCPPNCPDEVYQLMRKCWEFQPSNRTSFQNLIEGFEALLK
In assay [4] the target is JAK3-JH1JH2 (Homo sapiens (Human), UniProt P52333). The experiment in a line: Enzymatic inhibition assay (RapidFire HTMS), JAK3. Particulars: 150 μM ATP, 40 μM substrate. A digest of the protocol: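 Compounds tested in duplicate over 11-point 1:3 or 1:4 dilution series; no-enzyme wells as negative control. After 45 min at 25 °C, TFA quench with internal standard, and phosphorylated product quantified by RapidFire–QTrap mass spectrometry relative to the uninhibited reaction.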
JAK3-JH1JH2, sequence (P52333 512-1124): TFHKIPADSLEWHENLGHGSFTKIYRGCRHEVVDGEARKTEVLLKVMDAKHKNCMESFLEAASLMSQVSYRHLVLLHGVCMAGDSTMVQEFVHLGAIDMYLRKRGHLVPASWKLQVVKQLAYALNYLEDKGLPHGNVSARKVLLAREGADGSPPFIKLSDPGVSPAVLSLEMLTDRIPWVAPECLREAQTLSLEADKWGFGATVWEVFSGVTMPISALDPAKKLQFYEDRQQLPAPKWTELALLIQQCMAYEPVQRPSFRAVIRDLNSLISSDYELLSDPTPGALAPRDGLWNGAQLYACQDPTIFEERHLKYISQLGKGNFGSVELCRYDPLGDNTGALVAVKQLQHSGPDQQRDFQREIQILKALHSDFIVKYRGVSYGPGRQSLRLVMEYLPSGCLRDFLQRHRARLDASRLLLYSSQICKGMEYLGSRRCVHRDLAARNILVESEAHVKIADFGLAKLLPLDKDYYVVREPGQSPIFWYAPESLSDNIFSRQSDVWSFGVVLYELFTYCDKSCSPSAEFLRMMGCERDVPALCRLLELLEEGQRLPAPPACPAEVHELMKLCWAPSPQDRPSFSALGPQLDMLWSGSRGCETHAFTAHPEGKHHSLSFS

JAK2-JH1JH2, sequence (O60674 532-1132): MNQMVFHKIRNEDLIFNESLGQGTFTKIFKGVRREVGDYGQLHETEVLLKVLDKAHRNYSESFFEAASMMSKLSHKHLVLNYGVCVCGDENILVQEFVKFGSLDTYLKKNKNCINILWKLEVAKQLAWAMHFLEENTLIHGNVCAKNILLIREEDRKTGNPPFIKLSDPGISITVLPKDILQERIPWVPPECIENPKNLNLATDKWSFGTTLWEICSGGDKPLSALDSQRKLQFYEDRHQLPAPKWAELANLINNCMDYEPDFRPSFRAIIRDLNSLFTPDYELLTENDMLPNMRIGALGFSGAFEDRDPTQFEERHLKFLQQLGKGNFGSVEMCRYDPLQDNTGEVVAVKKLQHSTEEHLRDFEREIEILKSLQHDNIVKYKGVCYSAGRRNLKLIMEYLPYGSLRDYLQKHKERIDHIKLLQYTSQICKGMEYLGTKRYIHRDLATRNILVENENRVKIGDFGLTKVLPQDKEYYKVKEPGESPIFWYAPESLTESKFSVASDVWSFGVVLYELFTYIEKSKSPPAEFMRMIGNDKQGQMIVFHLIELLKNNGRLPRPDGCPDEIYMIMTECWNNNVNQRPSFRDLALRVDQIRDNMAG
Tyk2-JH1JH2, sequence (P29597 580-1182 C936A/C1142A): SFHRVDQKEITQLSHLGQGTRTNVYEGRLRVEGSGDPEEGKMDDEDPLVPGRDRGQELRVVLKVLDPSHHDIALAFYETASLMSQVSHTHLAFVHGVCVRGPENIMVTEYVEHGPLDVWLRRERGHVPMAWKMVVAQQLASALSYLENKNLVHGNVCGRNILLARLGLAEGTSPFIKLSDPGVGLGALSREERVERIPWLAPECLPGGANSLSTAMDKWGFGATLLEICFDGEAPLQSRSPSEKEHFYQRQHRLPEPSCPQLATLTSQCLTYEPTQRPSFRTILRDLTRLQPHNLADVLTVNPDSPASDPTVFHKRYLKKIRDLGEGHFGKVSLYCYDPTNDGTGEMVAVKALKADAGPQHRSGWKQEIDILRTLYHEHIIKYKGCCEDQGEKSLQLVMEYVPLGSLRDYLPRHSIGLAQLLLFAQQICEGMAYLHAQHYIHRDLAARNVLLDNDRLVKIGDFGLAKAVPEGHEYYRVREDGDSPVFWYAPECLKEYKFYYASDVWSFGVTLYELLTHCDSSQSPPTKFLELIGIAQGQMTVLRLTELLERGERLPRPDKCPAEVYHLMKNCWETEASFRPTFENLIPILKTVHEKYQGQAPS

The term IC50 denotes the midpoint of a concentration-inhibition curve. In the case of `N#CC[C@H]1CC[C@H](n2c(-c3ncc[nH]3)nc3cnc4[nH]ccc4c32)CC1` [Ex. 56, 2-((1r,4r)-4-(2-(1H-Imidazol-2-yl)imidazo[4,5-d]pyrrolo[2,3-b]pyridin-1(6H)-yl)cyclohexyl)acetonitrile], the IC50 in assay [1] came out at 1.9 nM; in assay [2] it was 7.2 nM; in assay [3] it was 0.2 nM; in assay [4], 32.9 nM.
The corresponding values for `N#CC[C@H]1CC[C@H](n2c(CC(=O)NCC(F)(F)F)nc3cnc4[nH]ccc4c32)CC1` [Ex. 57, 2-(1-((1r,4r)-4-(Cyanomethyl)cyclohexyl)-1,6-dihydroimidazo[4,5-d]pyrrolo[2,3-b]pyridin-2-yl)-N-(2,2,2-trifluoroethyl)acetamide] are 5.6 nM, 3.4 nM, 0.2 nM and 69.5 nM.
On the same counts, the results for `N#CC[C@H]1CC[C@H](n2c(CC(=O)NC34CCC(C(N)=O)(CC3)CC4)nc3cnc4[nH]ccc4c32)CC1` [Ex. 58, 4-(2-(1-((1r,4r)-4-(Cyanomethyl)cyclohexyl)-1,6-dihydroimidazo[4,5-d]pyrrolo[2,3-b]pyridin-2-yl)acetamido)bicyclo[2.2.2]octane-1-carboxamide] are 1.4 nM, 3.3 nM, 0.3 nM and 31.4 nM.
The corresponding values for `CC(C)(O)CCNC(=O)Cc1nc2cnc3[nH]ccc3c2n1[C@H]1CC[C@H](CC#N)CC1` [Ex. 59, 2-(1-((1r,4r)-4-(Cyanomethyl)cyclohexyl)-1,6-dihydroimidazo[4,5-d]pyrrolo[2,3-b]pyridin-2-yl)-N-(3-hydroxy-3-methylbutyl)acetamide] are 6.7 nM, 7.2 nM, 0.3 nM and 122 nM.
Turning to `N#CC[C@H]1CC[C@H](n2c(-c3cc[nH]n3)nc3cnc4[nH]ccc4c32)CC1` [Ex. 60, 2-((1r,4r)-4-(2-(1H-Pyrazol-3-yl)imidazo[4,5-d]pyrrolo[2,3-b]pyridin-1(6H)-yl)cyclohexyl)acetonitrile], the IC50 in assay [1] was 1.7 nM; in assay [2], 3.4 nM; in assay [3], 0.3 nM; in assay [4], 72 nM.
Regarding `CC(C)/C(=N/O)NCc1nc2cnc3[nH]ccc3c2n1[C@H]1CC[C@H](CC#N)CC1` [Ex. 61, (EZ)—N-((1-((1r,4r)-4-(cyanomethyl)cyclohexyl)-1,6-dihydroimidazo[4,5-d]pyrrolo[2,3-b]pyridin-2-yl)methyl)-N-hydroxyisobutyrimidamide], the IC50 in assay [1] was 25.7 nM; in assay [2], 6.3 nM; in assay [3], 0.3 nM; in assay [4], 219 nM.
The corresponding values for `CC(C)CN1CCC(NC(=O)Cc2nc3cnc4[nH]ccc4c3n2[C@H]2CC[C@H](CC#N)CC2)CC1` [Ex. 62, 2-(1-((1r,4r)-4-(Cyanomethyl)cyclohexyl)-1,6-dihydroimidazo[4,5-d]pyrrolo[2,3-b]pyridin-2-yl)-N-(1-isobutylpiperidin-4-yl)acetamide] are 2.1 nM, 2.6 nM, 0.3 nM and 30.6 nM.
With `N#CC[C@H]1CC[C@H](n2c(-c3nn[nH]n3)nc3cnc4[nH]ccc4c32)CC1` [Ex. 63, 2-((1r,4r)-4-(2-(2H-Tetrazol-5-yl)imidazo[4,5-d]pyrrolo[2,3-b]pyridin-1(6H)-yl)cyclohexyl)acetonitrile], the IC50 in assay [1] is 2.2 nM; in assay [2], 19.1 nM; in assay [3] it was 0.3 nM; in assay [4], 57.3 nM.
The corresponding values for `N#CC[C@H]1CC[C@H](n2c(CC(=O)Nc3cn[nH]c3)nc3cnc4[nH]ccc4c32)CC1` [Ex. 64, 2-(1-((1r,4r)-4-(Cyanomethyl)cyclohexyl)-1,6-dihydroimidazo[4,5-d]pyrrolo[2,3-b]pyridin-2-yl)-N-(1H-pyrazol-4-yl)acetamide] are 5.6 nM, 5.7 nM, 0.3 nM and 51.4 nM.
With `CC1(C)CCC(NC(=O)Cc2nc3cnc4[nH]ccc4c3n2[C@H]2CC[C@H](CC#N)CC2)CC1` [Ex. 65, 2-(1-((1r,4r)-4-(Cyanomethyl)cyclohexyl)-1,6-dihydroimidazo[4,5-d]pyrrolo[2,3-b]pyridin-2-yl)-N-(4,4-dimethylcyclohexyl)acetamide], the IC50 in assay [1] stood at 7 nM; in assay [2] it was 11.7 nM; in assay [3], 0.3 nM; in assay [4], 81.5 nM.
In the case of `CN1CCC(NC(=O)Cc2nc3cnc4[nH]ccc4c3n2[C@H]2CC[C@H](CC#N)CC2)CC1` [Ex. 66, 2-(1-((1r,4r)-4-(Cyanomethyl)cyclohexyl)-1,6-dihydroimidazo[4,5-d]pyrrolo[2,3-b]pyridin-2-yl)-N-(1-methylpiperidin-4-yl)acetamide], the IC50 is 2.5 nM in assay [1], 2.8 nM in assay [2], 0.3 nM in assay [3] and 18.9 nM in assay [4].
For the compound `N#CC[C@H]1CC[C@H](n2c(CC(=O)N3CCS(=O)(=O)CC3)nc3cnc4[nH]ccc4c32)CC1` [Ex. 67, 2-((1r,4r)-4-(2-(2-(1,1-Dioxidothiomorpholino)-2-oxoethyl)imidazo[4,5-d]pyrrolo[2,3-b]pyridin-1(6H)-yl)cyclohexyl)acetonitrile], the IC50 turned out to be 12.3 nM in assay [1], 3.8 nM in assay [2], 0.3 nM in assay [3] and 121 nM in assay [4].
The corresponding values for `N#CC[C@H]1CC[C@H](n2c(CC(=O)NCc3ccc(CO)cc3)nc3cnc4[nH]ccc4c32)CC1` [Ex. 68, 2-(1-((1r,4r)-4-(Cyanomethyl)cyclohexyl)-1,6-dihydroimidazo[4,5-d]pyrrolo[2,3-b]pyridin-2-yl)-N-(4-(hydroxymethyl)benzyl)acetamide] are 8.2 nM, 13.3 nM, 0.3 nM and 180 nM.
The corresponding values for `COC(C)(C)CNC(=O)Cc1nc2cnc3[nH]ccc3c2n1[C@H]1CC[C@H](CC#N)CC1` [Ex. 71, 2-(1-((1r,4r)-4-(Cyanomethyl)cyclohexyl)-1,6-dihydroimidazo[4,5-d]pyrrolo[2,3-b]pyridin-2-yl)-N-(2-methoxy-2-methylpropyl)acetamide] are 3.4 nM, 3.3 nM, 0.2 nM and 54.2 nM.
As for `COCC/C(N)=N/OCc1nc2cnc3[nH]ccc3c2n1[C@H]1CC[C@H](CC#N)CC1` [Ex. 72, (Z*)—N-((1-((1r,4r)-4-(Cyanomethyl)cyclohexyl)-1,6-dihydroimidazo[4,5-d]pyrrolo[2,3-b]pyridin-2-yl)methoxy)-3-methoxypropanimidamide], the IC50 in assay [1] worked out at 5.2 nM; in assay [2] it was 27.2 nM; in assay [3], 0.4 nM; in assay [4], 181 nM.
The corresponding values for `N#CC[C@H]1CC[C@H](n2c(CC(=O)N3CCC(CO)CC3)nc3cnc4[nH]ccc4c32)CC1` [Ex. 73, 2-((1r,4r)-4-(2-(2-(4-(Hydroxymethyl)piperidin-1-yl)-2-oxoethyl)imidazo[4,5-d]pyrrolo[2,3-b]pyridin-1(6H)-yl)cyclohexyl)acetonitrile] are 19.9 nM, 6.3 nM, 0.4 nM and 199 nM.
As for `CC1CC(C)CC(NC(=O)Cc2nc3cnc4[nH]ccc4c3n2[C@H]2CC[C@H](CC#N)CC2)C1` (stereo partly drawn) [Ex. 75, 2-(1-((1r,4r)-4-(Cyanomethyl)cyclohexyl)-1,6-dihydroimidazo[4,5-d]pyrrolo[2,3-b]pyridin-2-yl)-N-(3,5-dimethylcyclohexyl)acetamide], the IC50 in assay [1] turned out to be 3.4 nM; in assay [2], 9.2 nM; in assay [3], 0.4 nM; in assay [4], 62.3 nM.
On the same counts, the results for `N#CC[C@H]1CC[C@H](n2c(C3CCN(c4ccc(C#N)cc4)CC3)nc3cnc4[nH]ccc4c32)CC1` [Ex. 76, 4-(4-(1-((1r,4r)-4-(Cyanomethyl)cyclohexyl)-1,6-dihydroimidazo[4,5-d]pyrrolo[2,3-b]pyridin-2-yl)piperidin-1-yl)benzonitrile] are 23.6 nM, 16.8 nM, 0.4 nM and 1210 nM.
The corresponding values for `N#CC[C@H]1CC[C@H](n2c(CNS(=O)(=O)c3ccccc3)nc3cnc4[nH]ccc4c32)CC1` [Ex. 77, N-((1-((1r,4r)-4-(Cyanomethyl)cyclohexyl)-1,6-dihydroimidazo[4,5-d]pyrrolo[2,3-b]pyridin-2-yl)methyl)benzenesulfonamide] are 39.4 nM, 22.3 nM, 0.4 nM and 1910 nM.
On the same counts, the results for `N#CC[C@H]1CC[C@H](n2c(CC(=O)NC3CC4CCC3C4)nc3cnc4[nH]ccc4c32)CC1` (stereo partly drawn) [Ex. 78, N-((1S,4R)-Bicyclo[2.2.1]heptan-2-yl)-2-(1-((1r,4r)-4-(cyanomethyl)cyclohexyl)-1,6-dihydroimidazo[4,5-d]pyrrolo[2,3-b]pyridin-2-yl)acetamide] are 11.2 nM, 13.4 nM, 0.4 nM and 69.4 nM.
For the compound `N#CC[C@H]1CC[C@H](n2c(CC(=O)NCc3ccc(OC(F)F)cc3)nc3cnc4[nH]ccc4c32)CC1` [Ex. 79, 2-(1-((1r,4r)-4-(cyanomethyl)cyclohexyl)-1,6-dihydroimidazo[4,5-d]pyrrolo[2,3-b]pyridin-2-yl)-N-(4-(difluoromethoxy)benzyl)acetamide], the IC50 amounted to 10.6 nM in assay [1], 13.3 nM in assay [2], 0.4 nM in assay [3] and 223 nM in assay [4].
